IC50 data for one compound are collected here from patent publication US20250120988A1, “SMALL MOLECULE COMPOUND FOR TREATING ISCHEMIC STROKE, ITS PREPARATION METHOD, AND APPLICATION” (SHANGHAI SIXTH PEOPLE'S HOSPITAL, priority 2023, published 2025).

In this assay the target is T1, ASIC1a (Homo sapiens, UniProt P78348).
T1 construct: expressed in transfected cells
T1 sequence (P78348 1-528): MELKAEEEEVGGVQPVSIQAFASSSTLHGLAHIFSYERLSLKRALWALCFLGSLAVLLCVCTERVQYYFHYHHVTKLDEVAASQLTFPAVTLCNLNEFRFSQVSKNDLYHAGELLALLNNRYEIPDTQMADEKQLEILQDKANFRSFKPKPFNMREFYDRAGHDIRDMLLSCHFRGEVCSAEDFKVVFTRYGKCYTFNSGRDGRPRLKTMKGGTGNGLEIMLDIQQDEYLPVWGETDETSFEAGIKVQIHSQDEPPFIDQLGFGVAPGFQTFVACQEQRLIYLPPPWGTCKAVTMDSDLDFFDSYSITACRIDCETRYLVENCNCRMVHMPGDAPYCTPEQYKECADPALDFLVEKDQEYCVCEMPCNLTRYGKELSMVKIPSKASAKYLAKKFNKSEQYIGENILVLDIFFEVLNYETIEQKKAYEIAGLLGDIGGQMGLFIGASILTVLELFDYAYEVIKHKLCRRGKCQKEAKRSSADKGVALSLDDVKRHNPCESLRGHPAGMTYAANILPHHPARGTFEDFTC
The assay can be described thus: Whole-cell patch clamp, competitive blocking of glutamate-potentiated ASIC1a current in CHO cells. In kind it is cell-based. Particulars: pH 7.0, 500 μM glutamate, read-out: IC50 of competitive antagonism against the glutamate binding ASIC1a current. Here is the method:
Figure a illustrates the LK-2 concentration-dependent blocking of signal of ASIC1a current (recorded from the same CHO cell) activated at pH 7 in patch clamp experiments, with a glutamate concentration of 500 μM and LK-2 concentrations of 1, 10, 50, and 100 μM in sequence. […] Smaller values indicate stronger blocking effects of the compound.
[drawing 3] • 2. Electrophysiological experiments refer to the use of patch clamp techniques to overexpress ASICs (ASIC1a) and NMDARs (GluNR1+NR2A or GluNR1+NR2B) in CHO cell lines (Chinese hamster ovary cells), with the above-mentioned proteins carrying GFP green fluorescent protein for identification under fluorescence microscopy. The synthesized small molecules are separately tested for their blocking effects on the currents generated by the two types of receptors, and the IC50 values are calculated. • 2.1 The experimental steps of the membrane clamp technique are as follows. […]
Chinese hamster ovary cells (CHO) and HEK293T cells (provided by the Chinese Academy of Sciences Stem Cell Bank) were cultured separately in F12 and DMEM media (Gibco) containing 10% FBS (Gibco). […] All experiments were performed 24-48 hours after transfection, and all culture dishes were washed three times with ECF before the experiment, and GFP-positive CHO cells were observed under a fluorescence microscope for patch clamp recording. […]
(In general: In patch-clamp work, channel activity is measured electrically.)

SMILES strings stand for the structures.

Usually IC50 stands for the concentration at which inhibition is half-maximal. `O=C(O)C1CN(C(c2ccccc2)P(=O)(O)O)CCN1` (stereo not shown) [LK-2]: the IC50 was 6.6 ± 2.1 µM.
